Data from publication PMC11470957, “Principles of paralog-specific targeted protein degradation engaging the C-degron E3 KLHDC2” (Nature Communications, 2024).
Values joined by “and” are separate entries in the source; they are usually repeats but may differ in a detail not shown here. Equal values may be shown once.

Experiments:
BRD2^BD2 = BRD2^BD2 (Homo sapiens, UniProt P25440); assay: ITC, binary binding to BRD2^BD2
BRD3^BD2 = BRD3^BD2 (Homo sapiens, UniProt Q15059); assay: ITC, binary binding to BRD3^BD2
BRD4^BD2 = BRD4^BD2 (Homo sapiens, UniProt O60885); assay: ITC, binary binding to BRD4^BD2
R56A KLHDC2^SBD = biological target: T1, R56A KLHDC2^SBD (Homo sapiens, UniProt Q9Y2U9, R56A); assay: ITC, binary binding to R56A KLHDC2^SBD
T1 sequence (Q9Y2U9 15-361 R56A): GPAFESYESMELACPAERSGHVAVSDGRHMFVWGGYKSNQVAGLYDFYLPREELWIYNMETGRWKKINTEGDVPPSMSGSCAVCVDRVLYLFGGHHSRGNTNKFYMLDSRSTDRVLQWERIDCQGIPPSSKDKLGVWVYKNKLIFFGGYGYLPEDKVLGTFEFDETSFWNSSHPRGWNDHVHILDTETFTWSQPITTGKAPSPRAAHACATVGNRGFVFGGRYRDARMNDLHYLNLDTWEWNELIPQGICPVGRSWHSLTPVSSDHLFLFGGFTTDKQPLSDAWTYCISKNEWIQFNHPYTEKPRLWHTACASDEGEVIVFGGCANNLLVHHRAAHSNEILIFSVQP

KLHDC2^SBD / BRD3^BD2 = KLHDC2^SBD / BRD3^BD2 (Homo sapiens, UniProt Q15059+Q9Y2U9); assay: ITC, ternary complex KLHDC2^SBD with PROTAC-BRD3^BD2
[1] = biological target: KLHDC2^SBD / E344G BRD3^BD2 (Homo sapiens, UniProt Q15059+Q9Y2U9, E344G); assay: ITC, ternary complex KLHDC2^SBD with PROTAC-E344G BRD3^BD2
[2] = biological target: KLHDC2^SBD / G386E BRD4^BD2 (Homo sapiens, UniProt O60885+Q9Y2U9, G386E); assay: ITC, ternary complex KLHDC2^SBD with PROTAC-G386E BRD4^BD2
[3] = biological target: R112A KLHDC2^SBD / BRD3^BD2 (Homo sapiens, UniProt Q15059+Q9Y2U9, R112A); assay: ITC, ternary complex R112A KLHDC2^SBD with PROTAC-BRD3^BD2
[4] = biological target: K291A KLHDC2^SBD / BRD3^BD2 (Homo sapiens, UniProt Q15059+Q9Y2U9, K291A); assay: ITC, ternary complex K291A KLHDC2^SBD with PROTAC-BRD3^BD2
[5] = biological target: R56A KLHDC2^SBD / G386E BRD4^BD2 (Homo sapiens, UniProt O60885+Q9Y2U9, G386E/R56A); assay: ITC, ternary complex R56A KLHDC2^SBD with PROTAC-G386E BRD4^BD2
[6] = test system: CUL2^KLHDC2, CUL2^KLHDC3, CUL2^KLHDC10, CUL5^KLHDC1; assay: SJ46421-dependent BRD^BD2 ubiquitylation by KLHDC-family CRLs (E3 selectivity); settings: Figs 5a, S5a
[7] = cell: SJ46421, syringe: BRD2^BD2
[8] = cell: SJ46421, syringe: BRD3^BD2
[9] = ITC, syringe BRD4BD2, cell compound, Rep1, Rep2
[10] = cell: SJ46421, syringe: BRD4^BD2
[11] = cell: SJ46421, syringe: R56A KLHDC2^SBD
[12] = cell: PROTAC-BRD3^BD2, syringe: KLHDC2^SBD
[13] = cell: SJ46421-E344G BRD3^BD2, syringe: KLHDC2^SBD
[14] = cell: SJ46421-G386E BRD4^BD2, syringe: KLHDC2^SBD
[15] = ITC source data Fig4f, N=1, syringe R112A KLHDC2, cell SJ46421-BRD3BD2
[16] = ITC, syringe R112A KLHDC2, cell compound-BRD3BD2, N=1
[17] = cell: SJ46421-BRD3^BD2, syringe: R112A KLHDC2^SBD, n=1
[18] = ITC source data Fig4f, N=1, syringe K291A KLHDC2, cell SJ46421-BRD3BD2
[19] = ITC, syringe K291A KLHDC2, cell compound-BRD3BD2, N=1
[20] = cell: SJ46421-BRD3^BD2, syringe: K291A KLHDC2^SBD, n=1
[21] = cell: SJ46421-G386E BRD4^BD2, syringe: R56A KLHDC2^SBD

Sequence of BRD2^BD2 (P25440 344-455): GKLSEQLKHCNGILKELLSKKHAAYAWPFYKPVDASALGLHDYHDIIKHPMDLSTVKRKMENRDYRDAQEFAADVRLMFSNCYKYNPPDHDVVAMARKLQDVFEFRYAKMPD
Sequence of K291A KLHDC2^SBD / BRD3^BD2 (Q9Y2U9 15-361 K291A): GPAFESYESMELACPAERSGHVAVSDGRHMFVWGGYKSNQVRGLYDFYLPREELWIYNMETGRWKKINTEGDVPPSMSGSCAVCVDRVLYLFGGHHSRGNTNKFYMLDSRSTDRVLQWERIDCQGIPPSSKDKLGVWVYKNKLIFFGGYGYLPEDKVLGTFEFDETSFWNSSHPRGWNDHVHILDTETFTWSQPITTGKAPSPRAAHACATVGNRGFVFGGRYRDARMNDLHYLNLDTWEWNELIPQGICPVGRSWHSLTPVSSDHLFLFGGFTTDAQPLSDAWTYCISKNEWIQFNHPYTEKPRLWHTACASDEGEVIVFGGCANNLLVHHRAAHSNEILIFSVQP
Sequence of K291A KLHDC2^SBD / BRD3^BD2 (Q15059 306-416): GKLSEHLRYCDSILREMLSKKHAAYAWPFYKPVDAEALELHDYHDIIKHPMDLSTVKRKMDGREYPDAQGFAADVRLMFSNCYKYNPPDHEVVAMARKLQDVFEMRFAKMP
Sequence of R112A KLHDC2^SBD / BRD3^BD2 (Q9Y2U9 15-361 R112A): as the sequence (Q9Y2U9 15-361 K291A) above, with R98A, A277K counted along it
Sequence of R112A KLHDC2^SBD / BRD3^BD2 (Q15059 306-416): as the sequence (Q15059 306-416) above
Sequence of BRD3^BD2 (Q15059 306-416): as above
Sequence of KLHDC2^SBD / G386E BRD4^BD2 (Q9Y2U9 15-361, other chains not shown): as the sequence (Q9Y2U9 15-361 K291A) above, with A277K counted along it
Sequence of KLHDC2^SBD / E344G BRD3^BD2 (Q9Y2U9 15-361): as the sequence (Q9Y2U9 15-361 K291A) above, with A277K counted along it
Sequence of KLHDC2^SBD / E344G BRD3^BD2 (Q15059 306-416 E344G): as the sequence (Q15059 306-416) above, with E39G counted along it
Sequence of KLHDC2^SBD / BRD3^BD2 (Q9Y2U9 15-361): as the sequence (Q9Y2U9 15-361 K291A) above, with A277K counted along it
Sequence of KLHDC2^SBD / BRD3^BD2 (Q15059 306-416): as the sequence (Q15059 306-416) above

SMILES: Cc1sc2c(c1C)C(c1ccc(Cl)cc1)=N[C@@H](CC(=O)N1CCN(CCOc3cccc4ccc(-c5nc(CC(=O)NCC(=O)O)cs5)cc34)CC1)c1nnc(C)n1-2 [SJ46421]
- Kd (BRD2^BD2; ITC Kd, cell: SJ46421, syringe: BRD2^BD2): 2.14 ± 0.306 µM
- (-)TDS (BRD2^BD2; ITC, syringe BRD2BD2, cell compound, Rep1, Rep2): 2.71 and 2.54
- Kd (BRD2^BD2; Kd, Rep1/Rep2, ITC source data Fig4a, syringe BRD2BD2, cell SJ46421): 2.29 µM and 1.89 µM
- ITC -TΔS (BRD2^BD2; [7]): 2.63 +/- 0.12 kcal/mol-1
- ITC N (BRD2^BD2; [7]): 0.9
- ITC ΔH (BRD2^BD2; [7]): -10.5 +/- 0.45 kcal/mol-1
- Kd (BRD3^BD2; ITC Kd, cell: SJ46421, syringe: BRD3^BD2): 1 ± 0.194 µM
- (-)TDS (BRD3^BD2; ITC, syringe BRD3BD2, cell compound, Rep1, Rep2): 5.34 and 5
- Kd (BRD3^BD2; Kd, Rep1/Rep2, ITC source data Fig4a, syringe BRD3BD2, cell SJ46421): 1.07 µM and 0.908 µM
- ITC -TΔS (BRD3^BD2; [8]): 5.11 +/- 0.24 kcal/mol-1
- ITC N (BRD3^BD2; [8]): 0.9
- ITC ΔH (BRD3^BD2; [8]): -13.5 +/- 0.53 kcal/mol-1
- (-)TDS (BRD4^BD2; [9]): 1.81 and 1.64
- DH (BRD4^BD2; [9]): -9.89
- Kd (BRD4^BD2; Kd, Rep1/Rep2, ITC source data Fig4a, syringe BRD4BD2, cell SJ46421): 1.08 µM and 0.958 µM
- ITC -TΔS (BRD4^BD2; [10]): 1.73 +/- 0.14 kcal/mol-1
- ITC N (BRD4^BD2; [10]): 0.9
- Kd (R56A KLHDC2^SBD; ITC Kd, cell: SJ46421, syringe: R56A KLHDC2^SBD): 0.463 ± 0.015 µM
- Kd (R56A KLHDC2^SBD; Kd, Rep1/Rep2, ITC source data Fig4f, syringe R56A KLHDC2, cell SJ46421): 0.462 µM and 0.464 µM
- ITC -TΔS (R56A KLHDC2^SBD; [11]): -6.66 +/- 0.25 kcal/mol-1
- ITC N (R56A KLHDC2^SBD; [11]): 1.0
- ITC ΔG (R56A KLHDC2^SBD; [11]): -8.85 +/- 0.05 kcal/mol-1
- ITC ΔH (R56A KLHDC2^SBD; [11]): -1.82 +/- 0.05 kcal/mol-1
- ΔG (binary + ternary) (KLHDC2^SBD / BRD3^BD2; BRD3^BD2): -83.3 kJ/mol
- cooperativity α (KLHDC2^SBD / BRD3^BD2; BRD3^BD2, KLHDC2^SBD): 16
- (-)TDS (KLHDC2^SBD / BRD3^BD2; ITC, syringe KLHDC2, cell BRD3BD2-compound (printed BRD2BD3 for SJ46421), Rep1, Rep2): 1.05
- ITC N (ternary) (KLHDC2^SBD / BRD3^BD2; [12]): 0.9
- ITC ΔG (ternary) (KLHDC2^SBD / BRD3^BD2; [12]): -10.8 +/- 0.01 kcal/mol-1
- ITC ΔH (ternary) (KLHDC2^SBD / BRD3^BD2; [12]): -6.65 +/- 0.79 kcal/mol-1
- cooperativity α ([1]; E344G BRD3^BD2, KLHDC2^SBD): 1.7
- Kd ([1]; Kd, Rep1/Rep2, ITC source data Fig4f, syringe KLHDC2, cell SJ46421-E344GBRD3BD2): 0.187 µM and 0.175 µM
- ITC -TΔS (ternary) [1, 13]: -2.23 +/- 0.12 kcal/mol-1
- ITC N (ternary) [1, 13]: 1.0
- ITC ΔG (ternary) [1, 13]: -9.42 +/- 0.08 kcal/mol-1
- ITC ΔH (ternary) [1, 13]: -7.19 +/- 0.05 kcal/mol-1
- cooperativity α ([2]; G386E BRD4^BD2, KLHDC2^SBD): 13 and 12.7
- Kd ([2]; Kd, Rep1/Rep2, ITC source data Fig4f, syringe KLHDC2, cell SJ46421-G386EBRD4BD2): 0.0234 µM and 0.0259 µM
- ITC -TΔS (ternary) [2, 14]: -1.30 +/- 0.11 kcal/mol-1
- ITC N (ternary) [2, 14]: 0.9
- ITC ΔG (ternary) [2, 14]: -10.6 +/- 0.04 kcal/mol-1
- ITC ΔH (ternary) [2, 14]: -9.05 +/- 0.37 kcal/mol-1
- Kd [3]: 0.0397 µM
- (-)TDS, Rep1 [3, 15]: -7.43
- DG, Rep1 [3, 15]: -10.3
- DH, Rep1 [3, 15]: -2.9
- (-)TDS [3, 16]: -7.43
- DG [3, 16]: -10.3
- DH [3, 16]: -2.9
- cooperativity α ([3]; R112A KLHDC2^SBD, estimated from the binding affinity of SJ46421 to WT KLHDC2): 7.6
- ITC -TΔS (ternary) [3, 17]: -7.43 kcal/mol-1
- ITC N (ternary) [3, 17]: 0.8
- ITC ΔG (ternary) [3, 17]: -10.3 kcal/mol-1
- ITC ΔH (ternary) [3, 17]: -2.9 kcal/mol-1
- Kd [4]: 0.0256 µM
- (-)TDS, Rep1 [4, 18]: -5.73
- DG, Rep1 [4, 18]: -10.6
- DH, Rep1 [4, 18]: -4.87
- (-)TDS [4, 19]: -5.73
- DG [4, 19]: -10.6
- DH [4, 19]: -4.87
- cooperativity α ([4]; K291A KLHDC2^SBD, estimated from the binding affinity of SJ46421 to WT KLHDC2): 11.9
- ITC -TΔS (ternary) [4, 20]: -5.73 kcal/mol-1
- ITC N (ternary) [4, 20]: 0.9
- ITC ΔG (ternary) [4, 20]: -10.6 kcal/mol-1
- ITC ΔH (ternary) [4, 20]: -4.87 kcal/mol-1
- cooperativity α ([5]; G386E BRD4^BD2, R56A KLHDC2^SBD): 1.4
- Kd ([5]; Kd, Rep1/Rep2, ITC source data Fig4f, syringe R56A KLHDC2, cell SJ46421-G386EBRD4BD2): 0.333 µM and 0.325 µM
- ITC -TΔS (ternary) [5, 21]: -4.42 +/- 0.19 kcal/mol-1
- ITC N (ternary) [5, 21]: 1.1
- ITC ΔG (ternary) [5, 21]: -9.05 +/- 0.01 kcal/mol-1
- ITC ΔH (ternary) [5, 21]: -4.69 +/- 0.15 kcal/mol-1
- SJ46421-dependent ubiquitylation by KLHDC3, KLHDC10, and KLHDC1 [6]: poor
